According to ChEMBL document CHEMBL5465560, “Selectivity Literature for EUbOPEN Chemogenomic Library” (2024):
Values belong to the compound of their own block, whether it stands above or below them.

Legend:
[1] = biological target: T1, Histone-lysine N-methyltransferase NSD3 (Homo sapiens) (UniProt Q9BZ95); details: at 1 µM
T1 sequence (whole entry): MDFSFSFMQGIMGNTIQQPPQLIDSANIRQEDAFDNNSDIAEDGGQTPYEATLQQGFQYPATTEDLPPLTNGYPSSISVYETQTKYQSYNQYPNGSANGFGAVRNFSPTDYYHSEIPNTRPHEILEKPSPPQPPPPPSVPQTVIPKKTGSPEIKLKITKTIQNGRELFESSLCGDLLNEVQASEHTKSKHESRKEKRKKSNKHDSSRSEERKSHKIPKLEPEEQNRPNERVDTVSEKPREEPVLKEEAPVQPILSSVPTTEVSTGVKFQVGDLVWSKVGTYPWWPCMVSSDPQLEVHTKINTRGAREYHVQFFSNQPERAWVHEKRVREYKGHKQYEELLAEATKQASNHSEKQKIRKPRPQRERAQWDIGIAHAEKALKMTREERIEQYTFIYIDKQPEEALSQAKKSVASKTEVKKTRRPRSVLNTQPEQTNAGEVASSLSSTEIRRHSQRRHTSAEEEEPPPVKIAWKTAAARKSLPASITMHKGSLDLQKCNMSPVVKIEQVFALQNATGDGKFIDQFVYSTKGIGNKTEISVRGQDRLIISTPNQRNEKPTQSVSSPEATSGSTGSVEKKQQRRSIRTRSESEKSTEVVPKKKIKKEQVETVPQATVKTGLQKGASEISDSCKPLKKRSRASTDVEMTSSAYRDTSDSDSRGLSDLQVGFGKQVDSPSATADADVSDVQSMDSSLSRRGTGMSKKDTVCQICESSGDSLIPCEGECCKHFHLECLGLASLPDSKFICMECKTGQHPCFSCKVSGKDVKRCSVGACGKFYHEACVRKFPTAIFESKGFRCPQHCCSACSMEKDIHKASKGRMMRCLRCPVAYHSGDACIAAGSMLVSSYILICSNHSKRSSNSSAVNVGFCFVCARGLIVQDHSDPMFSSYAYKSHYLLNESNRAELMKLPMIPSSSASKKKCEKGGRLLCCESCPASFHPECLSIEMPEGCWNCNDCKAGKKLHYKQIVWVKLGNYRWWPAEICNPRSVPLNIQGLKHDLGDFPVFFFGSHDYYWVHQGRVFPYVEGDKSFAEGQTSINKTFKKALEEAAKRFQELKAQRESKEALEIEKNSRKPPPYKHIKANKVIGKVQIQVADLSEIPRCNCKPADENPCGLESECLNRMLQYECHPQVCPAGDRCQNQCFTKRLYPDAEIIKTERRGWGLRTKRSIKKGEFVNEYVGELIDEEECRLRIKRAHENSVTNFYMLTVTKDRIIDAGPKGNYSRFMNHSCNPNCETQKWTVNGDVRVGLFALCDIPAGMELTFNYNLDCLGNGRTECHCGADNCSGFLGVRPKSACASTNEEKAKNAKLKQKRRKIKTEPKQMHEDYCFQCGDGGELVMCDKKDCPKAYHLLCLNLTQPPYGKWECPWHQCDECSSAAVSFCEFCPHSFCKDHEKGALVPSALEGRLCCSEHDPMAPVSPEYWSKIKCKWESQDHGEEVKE

[2] = biological target: WD repeat-containing protein 48 (Homo sapiens) (UniProt Q8TAF3); experiment: Selectivity interaction (PWWP, WD40, and Tudor domain panel (DSLS measurements, literature)) EUB0000270b WDR48
[3] = biological target: [Pyruvate dehydrogenase (acetyl-transferring)] kinase isozyme 1, mitochondrial (Homo sapiens, UniProt Q15118); experiment: Selectivity interaction (Upstate Kinase Profiler service (Millipore)) EUB0000056c PDK1; details: at 1 µM
[4] = biological target: Serine/threonine-protein kinase 33 (Homo sapiens) (UniProt Q9BYT3); experiment: Selectivity interaction (Upstate Kinase Profiler service (Millipore)) EUB0000056c STK33; details: at 1 µM
[5] = biological target: Phosphatidylinositol 4-phosphate 5-kinase type-1 gamma (Homo sapiens) (UniProt O60331); experiment: Selectivity interaction (KinomeScan (DiscoverX)) EUB0000045b PIP5K1C
[6] = tested on: Tyrosine-protein kinase ABL1 (Homo sapiens), P00519 [F317L]; experiment: Selectivity interaction (KinomeScan (DiscoverX)) EUB0000655a ABL1; details: at 10 µM
Aurora kinase B = Aurora kinase B (Homo sapiens, UniProt Q96GD4); experiment: Selectivity interaction (KinomeScan (DiscoverX)) EUB0000655a AURKB; details: at 10 µM
[7] = biological target: Serine/threonine-protein kinase 10 (Homo sapiens) (UniProt O94804); experiment: Selectivity interaction (ActivX KiNativ screen (ex vivo kinase selectivity in human PBMCs)) EUB0001619a STK10; assay type: cell-based; details: PBMC, at 1 µM
[8] = biological target: T2, Mixed lineage kinase domain-like protein (Homo sapiens) (UniProt Q8NB16); experiment: Selectivity interaction (ActivX KiNativ screen (ex vivo kinase selectivity in human PBMCs)) EUB0001619a MLKL; assay type: cell-based; details: PBMC, at 1 µM
T2 sequence (whole entry): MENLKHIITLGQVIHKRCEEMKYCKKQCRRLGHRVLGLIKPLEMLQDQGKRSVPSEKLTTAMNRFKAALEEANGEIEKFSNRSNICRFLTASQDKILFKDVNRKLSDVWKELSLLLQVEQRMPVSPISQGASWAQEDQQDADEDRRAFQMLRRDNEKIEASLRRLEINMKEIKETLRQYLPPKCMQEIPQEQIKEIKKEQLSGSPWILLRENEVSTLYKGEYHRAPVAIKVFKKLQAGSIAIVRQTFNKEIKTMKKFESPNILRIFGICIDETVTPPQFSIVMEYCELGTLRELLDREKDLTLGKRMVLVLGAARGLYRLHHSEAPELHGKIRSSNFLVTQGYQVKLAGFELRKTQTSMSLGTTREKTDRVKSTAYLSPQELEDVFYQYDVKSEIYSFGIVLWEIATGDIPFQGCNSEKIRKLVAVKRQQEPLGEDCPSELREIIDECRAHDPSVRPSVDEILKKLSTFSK

[9] = biological target: Serine/threonine-protein kinase Chk2 (Homo sapiens) (UniProt O96017); experiment: Selectivity interaction (Kinase panel (KiNativ target engagement assay in Jurkat cells)) EUB0001635a CHEK2; assay type: cell-based; details: at 1 µM
Sequence of Serine/threonine-protein kinase Chk2 (Homo sapiens) (O96017 whole entry): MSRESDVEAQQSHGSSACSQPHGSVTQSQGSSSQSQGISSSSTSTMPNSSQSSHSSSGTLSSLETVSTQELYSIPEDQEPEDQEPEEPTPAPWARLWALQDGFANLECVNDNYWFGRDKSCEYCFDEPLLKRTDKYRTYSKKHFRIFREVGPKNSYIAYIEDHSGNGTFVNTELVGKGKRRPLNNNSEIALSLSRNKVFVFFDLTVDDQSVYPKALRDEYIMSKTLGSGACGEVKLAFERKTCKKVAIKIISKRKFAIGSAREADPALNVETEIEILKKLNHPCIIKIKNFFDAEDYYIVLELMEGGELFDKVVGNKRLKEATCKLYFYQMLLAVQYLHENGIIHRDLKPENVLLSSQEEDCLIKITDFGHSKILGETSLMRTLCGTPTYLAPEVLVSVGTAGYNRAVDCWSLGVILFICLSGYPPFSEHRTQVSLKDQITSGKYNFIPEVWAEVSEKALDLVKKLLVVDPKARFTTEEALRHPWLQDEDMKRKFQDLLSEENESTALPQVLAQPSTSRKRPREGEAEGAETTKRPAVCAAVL

Sequence of Phosphatidylinositol 4-phosphate 5-kinase type-1 gamma (Homo sapiens) (O60331 whole entry): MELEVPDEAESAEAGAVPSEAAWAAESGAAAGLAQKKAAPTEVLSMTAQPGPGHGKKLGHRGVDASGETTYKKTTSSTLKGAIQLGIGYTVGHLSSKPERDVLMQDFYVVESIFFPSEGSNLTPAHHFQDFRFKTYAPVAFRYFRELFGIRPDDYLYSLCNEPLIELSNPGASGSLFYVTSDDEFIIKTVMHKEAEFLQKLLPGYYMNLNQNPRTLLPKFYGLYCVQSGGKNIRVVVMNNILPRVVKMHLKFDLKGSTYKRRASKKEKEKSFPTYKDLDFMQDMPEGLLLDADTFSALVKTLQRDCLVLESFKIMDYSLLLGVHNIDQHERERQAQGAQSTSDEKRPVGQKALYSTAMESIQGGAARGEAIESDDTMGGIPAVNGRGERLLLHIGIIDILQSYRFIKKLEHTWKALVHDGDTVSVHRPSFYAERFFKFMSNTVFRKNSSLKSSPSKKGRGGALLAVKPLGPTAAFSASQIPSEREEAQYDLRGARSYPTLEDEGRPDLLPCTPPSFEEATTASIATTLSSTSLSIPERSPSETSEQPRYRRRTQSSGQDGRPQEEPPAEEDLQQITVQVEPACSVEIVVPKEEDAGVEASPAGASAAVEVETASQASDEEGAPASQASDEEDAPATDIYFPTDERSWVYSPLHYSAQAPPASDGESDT
Sequence of Tyrosine-protein kinase ABL1 (Homo sapiens), P00519 [F317L] (P00519 whole entry F317L): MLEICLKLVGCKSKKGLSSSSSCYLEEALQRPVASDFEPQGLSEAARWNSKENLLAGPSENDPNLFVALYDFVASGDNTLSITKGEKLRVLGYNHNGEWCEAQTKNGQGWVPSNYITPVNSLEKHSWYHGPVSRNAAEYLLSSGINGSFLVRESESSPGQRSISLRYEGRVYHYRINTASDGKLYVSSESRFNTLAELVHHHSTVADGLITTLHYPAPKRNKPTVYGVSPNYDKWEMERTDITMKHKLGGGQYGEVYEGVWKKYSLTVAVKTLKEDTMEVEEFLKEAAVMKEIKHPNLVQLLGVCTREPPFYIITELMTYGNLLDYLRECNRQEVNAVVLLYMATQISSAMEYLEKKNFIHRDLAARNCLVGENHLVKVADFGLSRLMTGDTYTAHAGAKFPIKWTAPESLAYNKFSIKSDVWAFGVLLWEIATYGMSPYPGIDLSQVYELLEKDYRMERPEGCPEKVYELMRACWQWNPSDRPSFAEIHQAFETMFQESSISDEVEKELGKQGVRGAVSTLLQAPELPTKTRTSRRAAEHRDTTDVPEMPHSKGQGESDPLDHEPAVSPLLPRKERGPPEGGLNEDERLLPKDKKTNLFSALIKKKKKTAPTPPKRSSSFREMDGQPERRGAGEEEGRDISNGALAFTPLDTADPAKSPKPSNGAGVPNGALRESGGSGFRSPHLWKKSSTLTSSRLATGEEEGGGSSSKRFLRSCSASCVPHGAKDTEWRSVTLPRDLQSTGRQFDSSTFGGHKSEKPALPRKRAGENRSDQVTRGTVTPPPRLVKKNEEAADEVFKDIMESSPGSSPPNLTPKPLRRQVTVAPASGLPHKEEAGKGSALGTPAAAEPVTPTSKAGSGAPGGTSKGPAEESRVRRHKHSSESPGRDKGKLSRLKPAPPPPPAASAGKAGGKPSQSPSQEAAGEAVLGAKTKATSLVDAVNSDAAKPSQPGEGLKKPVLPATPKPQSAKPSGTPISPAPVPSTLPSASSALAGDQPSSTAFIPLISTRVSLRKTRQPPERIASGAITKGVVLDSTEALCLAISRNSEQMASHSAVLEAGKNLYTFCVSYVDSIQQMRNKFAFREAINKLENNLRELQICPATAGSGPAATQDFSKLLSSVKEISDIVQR
Sequence of WD repeat-containing protein 48 (Homo sapiens) (Q8TAF3 whole entry, the tested form may be a part): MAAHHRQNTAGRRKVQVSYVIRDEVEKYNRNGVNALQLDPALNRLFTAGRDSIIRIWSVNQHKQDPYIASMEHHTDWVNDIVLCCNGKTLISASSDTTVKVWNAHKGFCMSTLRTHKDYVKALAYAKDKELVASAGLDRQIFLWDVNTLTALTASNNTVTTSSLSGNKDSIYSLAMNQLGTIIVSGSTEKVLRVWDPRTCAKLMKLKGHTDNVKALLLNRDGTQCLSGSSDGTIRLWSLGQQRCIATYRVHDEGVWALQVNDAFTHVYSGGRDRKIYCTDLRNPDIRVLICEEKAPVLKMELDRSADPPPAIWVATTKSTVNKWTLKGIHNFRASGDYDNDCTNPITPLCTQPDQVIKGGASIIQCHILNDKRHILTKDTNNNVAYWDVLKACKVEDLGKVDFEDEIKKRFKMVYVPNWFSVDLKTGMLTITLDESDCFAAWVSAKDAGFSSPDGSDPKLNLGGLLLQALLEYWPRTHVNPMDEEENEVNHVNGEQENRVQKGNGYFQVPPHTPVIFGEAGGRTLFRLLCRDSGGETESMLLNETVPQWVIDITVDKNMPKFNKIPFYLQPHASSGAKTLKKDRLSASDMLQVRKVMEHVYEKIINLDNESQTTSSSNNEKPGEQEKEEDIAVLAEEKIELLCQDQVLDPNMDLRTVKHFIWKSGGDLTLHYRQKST
Sequence of Aurora kinase B (Q96GD4 whole entry): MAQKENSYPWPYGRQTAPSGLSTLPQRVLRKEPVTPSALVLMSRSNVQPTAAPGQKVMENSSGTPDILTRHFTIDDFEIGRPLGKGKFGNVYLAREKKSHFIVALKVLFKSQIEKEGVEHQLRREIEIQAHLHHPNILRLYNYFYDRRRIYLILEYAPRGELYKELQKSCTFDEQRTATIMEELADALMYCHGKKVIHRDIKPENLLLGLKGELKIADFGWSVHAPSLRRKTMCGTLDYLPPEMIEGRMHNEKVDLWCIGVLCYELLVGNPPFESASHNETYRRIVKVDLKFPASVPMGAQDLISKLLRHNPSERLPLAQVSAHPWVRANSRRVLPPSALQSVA
Sequence of Serine/threonine-protein kinase 33 (Homo sapiens) (Q9BYT3 whole entry, looked up): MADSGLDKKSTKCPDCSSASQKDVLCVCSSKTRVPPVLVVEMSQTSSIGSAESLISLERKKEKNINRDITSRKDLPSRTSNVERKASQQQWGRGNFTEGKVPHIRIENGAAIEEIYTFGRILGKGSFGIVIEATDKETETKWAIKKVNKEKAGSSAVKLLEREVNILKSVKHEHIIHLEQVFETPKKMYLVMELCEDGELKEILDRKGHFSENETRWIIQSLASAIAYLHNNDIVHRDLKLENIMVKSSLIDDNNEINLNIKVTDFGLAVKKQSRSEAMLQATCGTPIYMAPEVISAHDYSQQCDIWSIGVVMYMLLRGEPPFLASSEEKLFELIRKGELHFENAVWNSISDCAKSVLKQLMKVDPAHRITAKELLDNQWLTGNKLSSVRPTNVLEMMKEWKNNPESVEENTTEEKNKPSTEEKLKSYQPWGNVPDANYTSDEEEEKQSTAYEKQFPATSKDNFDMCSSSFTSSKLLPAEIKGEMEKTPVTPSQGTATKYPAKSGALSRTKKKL
Sequence of Serine/threonine-protein kinase 10 (Homo sapiens) (O94804 whole entry, looked up, the tested form may be a part): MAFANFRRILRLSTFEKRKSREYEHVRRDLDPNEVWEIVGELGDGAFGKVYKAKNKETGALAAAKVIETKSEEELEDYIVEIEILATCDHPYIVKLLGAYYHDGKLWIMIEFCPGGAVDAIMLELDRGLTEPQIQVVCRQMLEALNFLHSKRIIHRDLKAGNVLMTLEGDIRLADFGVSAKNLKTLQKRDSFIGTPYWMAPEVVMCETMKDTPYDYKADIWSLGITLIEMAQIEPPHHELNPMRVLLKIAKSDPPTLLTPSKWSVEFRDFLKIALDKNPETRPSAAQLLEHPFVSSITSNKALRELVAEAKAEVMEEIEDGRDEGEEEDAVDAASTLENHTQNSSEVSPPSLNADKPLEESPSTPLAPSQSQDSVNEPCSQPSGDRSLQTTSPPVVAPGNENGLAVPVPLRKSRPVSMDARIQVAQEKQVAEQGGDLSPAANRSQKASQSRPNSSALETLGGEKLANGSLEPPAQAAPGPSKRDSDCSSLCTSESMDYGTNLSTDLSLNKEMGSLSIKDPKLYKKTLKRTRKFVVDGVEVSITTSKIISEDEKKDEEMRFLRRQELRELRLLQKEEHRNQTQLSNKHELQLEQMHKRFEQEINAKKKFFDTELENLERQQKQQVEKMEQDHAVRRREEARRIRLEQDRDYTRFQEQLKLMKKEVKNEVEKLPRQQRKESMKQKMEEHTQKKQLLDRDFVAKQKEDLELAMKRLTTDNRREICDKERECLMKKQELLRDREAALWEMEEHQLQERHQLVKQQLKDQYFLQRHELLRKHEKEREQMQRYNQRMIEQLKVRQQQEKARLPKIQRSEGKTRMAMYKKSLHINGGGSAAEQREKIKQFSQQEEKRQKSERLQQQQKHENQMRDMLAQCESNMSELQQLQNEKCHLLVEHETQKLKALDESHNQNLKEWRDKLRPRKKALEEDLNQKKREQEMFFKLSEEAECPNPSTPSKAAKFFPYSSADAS

% activity [1]: > 90%
Compound: CNCCN1CCC(c2cc(CN(C)C(=O)c3cccc(Oc4ccccc4)c3)ccn2)CC1

dTagg [2]: 0.1 K
Compound: Cc1cc(CN)cc(C)c1-c1ncn(C)c1-c1cncn1C

% of inhibition [3]: 0%
% of inhibition [4]: 39%
Compound: Cc1ccc(-c2ccc3c(ccc4sc5c(c43)NC[C@@H](C)NC5=O)n2)cn1

Compound: C=CC(=O)Nc1cc(-n2c(=O)ccc3cnc4ccc(-c5ccc(NS(C)(=O)=O)cc5)cc4c32)ccc1C
% of control ([5]; at 1 µM): 89%
% of control ([5]; at 10 µM): 29%

Compound: CN(C)CCOc1ccc(-c2nc(-c3ccncc3)c(-c3ccc4c(c3)CC/C4=N\O)[nH]2)cc1
% of control [6]: 59%
% of control (Aurora kinase B): 100%

Compound: N#Cc1cccc(-c2c[nH]c3ncnc(N4CCOCC4)c23)c1
% of inhibition [7]: 60%
% of inhibition [8]: 15%

Compound: C=CC(=O)Nc1ccc(C(=O)Nc2[nH]nc3c2CN(C(=O)N[C@H](CN(C)C)c2ccccc2)C3(C)C)cc1
% of engagement ([9]; Selectivity number of off-targets 0.0, Selectivity number of targets 233.0, Source Knowledge https://www.sciencedirect.com/science/article/pii/S2451945619300674?via%3Dihub): 5.2%
% of engagement [9]: 4.4%
